Results from publication PMC6010013, “Synthesis, physiochemical property and antimicrobial activity of novel quaternary ammonium salts” (Journal of Enzyme Inhibition and Medicinal Chemistry, 2017).

Test system: red blood cells
Assay: Haemolysis assay
Format: cell-based
Details: human red blood cells, 1 h at 37 ℃
Experimental: The surfactant may be absorbed and penetrate to the cell membrane, where it makes osmotic phenomena by altering the permeability of membrane, which in turn causes the cellular lysis. Haemolysis assay gives quantitative estimation about haemoglobin release when red blood cells are treated with QASs. Haemolytic assay of QASs at different concentration was carried out in Table 4. […] For 5a-b, 6a-b, 10a-c, 13a-b, and 16a-d, their safe concentration can more than 100 μg/mL. Compared with BZK and CA, all QASs were safe to be used when they circulated into the blood in low concentration. […]
The human blood from healthy individual was collected in a tube containing heparin, and the blood was centrifuged at 1500 rpm for 3 min. The […] (Erythrocyte) was collected and plasma was discarded and further washed five times with sterile normal saline solution. Then the cells were diluted to 0.2% of their volume with normal saline solution. 2 mL of the diluted red blood cells suspension was mixed with (a) 2 mL of normal salinesolution as a negative control; (b) 2 mL of distilled water as a positive control; (c) 2 mL of QAS solution which were dispersed into normal saline solution at the different concentrations ranging from 3.125 to 400 μg/mL. Then the mixtures were shaken well and incubated for 1 h at 37 ℃. Finally, the mixtures were centrifuged for 5min at 2000 r/min and the absorbances of supernatant at 540 nm was measured by a microplate reader (Multiskan MK3-Thermo Labsystems, USA). The hemolysis ratio was calculated as follows: The hemolysis ratio(%) = (OD Sample−OD Negative)/(OD Positive −OD Negative) ×100%. The hemolysis evaluation of QASs was performed in triplicate and results were expressed as the mean ± SD.

With “Benzalkonium chloride [BZK, reference compound]” the Haemolysis rate (6.25 μg/mL) was 1.51 ± 0.31%, the Haemolysis rate (12.50 μg/mL) was 1.39 ± 0.38% and the Haemolysis rate (25.00 μg/mL) was 12.69 ± 1.87%. The Haemolysis rate (50.00 μg/mL) was 63.85 ± 4.56%, the Haemolysis rate (100.00 μg/mL) was 92.36 ± 3.78% and the Haemolysis rate (200.00 μg/mL) was 96.28 ± 2.97%. It also gave a Haemolysis rate (400.00 μg/mL) of 98.53 ± 1.23%.
